Among the data in patent US8575161B2, “Benzofurane, benzothiophene, benzothiazol derivatives as FXR modulators” (Merck Patent GmbH, priority 2008, dated 2013) are EC50 values, retold here.

This assay has as its target T1, human Farsenoid X Receptor ligand binding domain - GST fusion protein (GST-FXR LBD) (Homo sapiens, UniProt Q96RI1).
T1 construct: Human FXR-LBD (amino acid 248-476); made in house; host or cells: E. coli BL21
T1 sequence (Q96RI1 248-476 isoform Q96RI1-1): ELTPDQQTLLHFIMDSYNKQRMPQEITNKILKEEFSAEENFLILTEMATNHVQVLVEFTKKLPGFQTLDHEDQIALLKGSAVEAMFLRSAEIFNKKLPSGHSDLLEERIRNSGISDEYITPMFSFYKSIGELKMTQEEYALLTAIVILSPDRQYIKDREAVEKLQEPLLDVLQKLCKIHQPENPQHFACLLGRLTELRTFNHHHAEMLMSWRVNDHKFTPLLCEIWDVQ
Briefly: FXR-SRC-1 Cofactor Recruitment Assay (time-resolved fluorescence energy transfer). Format: biochemical. Particulars: SRC-1 peptide recruitment, 1 hour at room temperature.

Molecules are shown by their SMILES.

Source text: BIOLOGICAL EXPERIMENTS FXR-SRC-1 Cofactor Recruitment Assay
GST-LBD is labelled with a europium chelate (donor) via a europium-tagged anti-GST antibody, and the co-activator peptide is labelled with allophycocyanin-APC (acceptor) via a streptavidin-biotin linkage.
In the presence of an agonist for the nuclear receptor, the peptide is recruited to the GST-LBD, bringing europium and allophycocyanin into close proximity to enable energy transfer from the europium chelate to the allophycocyanin. Upon excitation of the complex with light at 340 nm, excitation energy absorbed by the europium chelate is transmitted to the allophycocyanin moiety resulting in emission at 665 nm. […] The activity of a nuclear receptor agonist can be measured by determining the ability of a compound to bind the nuclear receptor in this test (EC50) and compare to the ability of reference compound to bind this same nuclear receptor. […]
A mix without peptide (same than peptide mix were peptide was replaced by water) was also set-up and for each compound (each concentration tested) a basal fluorescence level was determined in order to detect self-fluorescent compounds. […]
Plates were incubated 1 hour at room temperature and fluorescence was read on a time resolved mode on a Wallac/Perkin Elmer Victor2 counter.
For each compound concentration, fluorescent signal ratio: F665/F615×1000 was calculated. […]

As to `O=C(O)c1cc2c(Br)c(N3CCC(N(C(=O)C4CC4)c4ccc(Cl)cc4Cl)CC3)ccc2o1` [Example 165, 4-Bromo-5-{4-[cyclopropanecarbonyl-(2,4-dichloro-phenyl)-amino]-piperidin-1-yl}-benzofuran-2-carboxylic acid], a half-maximal response (EC50) required 0.106 µM.
